Patent publication US20010016643A1, “Peptide derivatives” (priority 1995, published 2001)
Residues, ends and D or L forms follow the SMILES beside them.

Columns and labels:
[1] = Lipophilicity relative to human insulin (k′rel) by RP-HPLC; assay type: physicochemical; settings: LiChrosorb RP18 HPLC, isocratic elution, sodium phosphate buffer pH 7.3/acetonitrile
Procedure: The lipophilicity of peptides and peptide derivatives relative to human insulin, k′rel, was measured on a LiChrosorb RP18 (5 μm, 4×250 mm) HPLC column by isocratic elution at […] using mixtures of A) 0.1 M sodium phosphate buffer, pH 7.3, containing 10% acetonitrile, and B) 50% acetonitrile in water as eluents. The elution was monitored by following the UV absorption of the eluate at 214 nm. Void time, t0, was found by injecting 0.1 mM sodium nitrate. Retention time for human insulin, tinsulin was adjusted to at least 2t0 by varying the ratio between the A and B solutions. k′rel=(tderivative−t0 /(tinsulin−t0).

[2] = Blood glucose in rabbits pretreated with Insulin Actrapid after SC injection of glucagon or derivative; assay type: in vivo
Procedure: The resulting solution was sterilized by filtration and transferred to a vial.
Blood was sampled at times: −60, 0, 15, 30, 60, 120, 180 and 240 min, and the glucose concentration determined by the hexokinase method.

| lipophilicity relative to human insulin, k′rel [1] | Compound | blood glucose concentration ([2]; 15 min after SC injection) [mg glucose/100 ml] | blood glucose concentration ([2]; 30 min after SC injection) [mg glucose/100 ml] | blood glucose concentration ([2]; 60 min after SC injection) [mg glucose/100 ml] | blood glucose concentration ([2]; 120 min after SC injection) [mg glucose/100 ml] | blood glucose concentration ([2]; 180 min after SC injection) [mg glucose/100 ml] | blood glucose concentration ([2]; 240 min after SC injection) [mg glucose/100 ml] | blood glucose raising effect ([2]; SC, compared with glucagon) | blood glucose concentration ([2]; time 0 min (SC injection of test substance)) [mg glucose/100 ml] | blood glucose concentration ([2]; time −60 min (at Insulin Actrapid 2 IU/animal, before test substance)) [mg glucose/100 ml] |
| --- | --- | --- | --- | --- | --- | --- | --- | --- | --- | --- |
| 2.3 | CCCC[C@H](NC=O)C(=O)N[C@@H](CC(C)C)C(=O)N[C@@H](Cc1ccccc1)C(=O)N[C@@H](CCCC)C(=O)N[C@@H](Cc1ccc(O)cc1)C(=O)N[C@@H](CCCCN)C(=O)O [For-Nle-Leu-Phe-Nle-Tyr-Lys-OH] (HELM PEPTIDE1{[O=C[*:2]].[Nle].L.F.[Nle].Y.K}$$$$V2.0) |  |  |  |  |  |  |  |  |  |
|  | Lys^30 (N^ε-decanoyl) glucagon [Example 6] | 79 | 93 | 114 | 112 | 116 | 110 | retained in Lys^30(Nε-decanoyl) glucagon but with a prolonged action | 51 | 94 |
